Laboratory results from PMC10223062, “Discovery of Novel Thiophene/Hydrazones: In Vitro and In Silico Studies against Pancreatic Cancer” (Pharmaceutics, 2023).

Columns and labels:
[1] = tested on: HaCaT cell line; assay: Cell viability (cytotoxicity) in healthy cells, MTT assay; assay type: cell-based, human; details: for IC50: Homo sapiens, HaCaT, MTT, 72 h, healthy keratinocytes, read-out: IC50 in 2D cultured HaCaT cell line; for Selectivity, cancer vs healthy cell line: MIA PaCa-2 vs healthy cell line (HaCaT)
Procedure: HaCaT human healthy keratinocyte cells (CRL-2404™) (ATCC, Manassas, VA, USA) were cultured in DMEM (10% FBS, v/v) (Gibco, Billings, MT, USA), respectively and supplemented with 1% antibiotics (10.000 μg/mL streptomycin and 10.000 units/mL penicillin) (Gibco, Billings, MT, USA) at 37 °C in a humidified atmosphere of 5% CO2. For the preliminary assessment of the cytotoxicity of selected potent compounds in healthy cells, HaCaT cells were seeded 2 × 10^5 cells/mL in 96-well plate and incubated for 24 h. The following day the 7a, 7d, and 7f compounds were applied similarly as in the MIA PaCa-2 cytotoxicity protocol between concentrations 0.62–100 µM for 72 h and then MTT was applied.

[2] = biological target: T1, 5-LOX (Homo sapiens, UniProt P09917); assay: Fluorometric 5-LOX inhibitor screening kit; assay type: biochemical; details: for 5-LOX Percent of İnhibition: at 10 µM
T1 construct: purchased MyBioSource
T1 sequence (P09917 1-674): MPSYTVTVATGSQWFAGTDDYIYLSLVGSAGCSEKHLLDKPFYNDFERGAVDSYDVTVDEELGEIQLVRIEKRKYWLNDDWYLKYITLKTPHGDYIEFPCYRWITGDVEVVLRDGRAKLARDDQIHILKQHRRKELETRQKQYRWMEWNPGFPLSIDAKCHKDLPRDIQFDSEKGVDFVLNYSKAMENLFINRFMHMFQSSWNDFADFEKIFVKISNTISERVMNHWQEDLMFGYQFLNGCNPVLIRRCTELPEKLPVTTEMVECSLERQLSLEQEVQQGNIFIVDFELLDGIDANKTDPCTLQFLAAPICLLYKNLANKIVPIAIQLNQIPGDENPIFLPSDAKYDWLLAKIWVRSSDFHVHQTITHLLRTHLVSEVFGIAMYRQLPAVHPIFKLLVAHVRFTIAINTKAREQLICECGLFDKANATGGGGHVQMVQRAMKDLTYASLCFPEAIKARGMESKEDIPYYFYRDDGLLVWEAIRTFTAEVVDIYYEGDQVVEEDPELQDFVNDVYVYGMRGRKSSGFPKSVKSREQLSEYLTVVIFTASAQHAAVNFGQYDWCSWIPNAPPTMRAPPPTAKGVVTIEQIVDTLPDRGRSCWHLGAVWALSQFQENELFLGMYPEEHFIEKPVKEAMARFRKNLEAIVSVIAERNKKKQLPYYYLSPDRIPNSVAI
Procedure: COX-1 and COX-2 inhibitory activities were tested using fluorometric COX-1 and COX-2 inhibitor screening kits (Abcam, United Kingdom), and the 5-LOX inhibitory activity was tested using a fluorometric 5-LOX inhibitor screening kit (MyBioSource, USA). These assays are based on the fluorometric detection of Prostaglandin G2 (a product generated by the COX enzyme) or on the fluorometric detection of the intermediate generated by the 5-LOX enzyme. The experiments were conducted in accordance with the manufacturers’ instructions.
For the determination of 5-LOX inhibitory activity, tested compounds were dissolved in DMSO (5 mM stock solution) and then diluted with the same solvent to obtain the test solutions. Test solutions were added to wells in an amount of 2 µL in the final 100 µL reaction volume. […] EC, SC, IC, and all test solutions were analyzed in triplicate.

[3] = biological target: T2, COX-2 (Homo sapiens, UniProt P35354); assay: Fluorometric COX-2 inhibitor screening kit; details: for COX-2 Percent of İnhibition: at 10 µM; for IC50: COX-2 IC50
T2 sequence (P35354 18-604): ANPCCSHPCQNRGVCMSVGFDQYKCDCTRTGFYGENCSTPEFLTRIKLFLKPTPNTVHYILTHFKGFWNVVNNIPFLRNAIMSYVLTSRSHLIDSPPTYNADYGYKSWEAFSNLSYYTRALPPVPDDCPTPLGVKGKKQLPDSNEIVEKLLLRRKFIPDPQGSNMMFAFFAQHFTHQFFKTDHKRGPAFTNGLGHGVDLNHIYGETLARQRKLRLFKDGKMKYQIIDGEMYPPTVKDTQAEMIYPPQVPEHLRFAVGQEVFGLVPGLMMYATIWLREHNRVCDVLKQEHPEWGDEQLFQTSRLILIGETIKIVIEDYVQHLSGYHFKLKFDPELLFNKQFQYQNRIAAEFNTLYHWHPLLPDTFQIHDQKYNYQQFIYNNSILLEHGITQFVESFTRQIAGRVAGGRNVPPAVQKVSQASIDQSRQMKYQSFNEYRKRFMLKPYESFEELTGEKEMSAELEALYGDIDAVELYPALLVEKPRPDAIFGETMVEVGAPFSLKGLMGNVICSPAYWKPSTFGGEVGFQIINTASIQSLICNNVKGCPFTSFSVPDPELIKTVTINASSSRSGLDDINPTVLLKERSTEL
Procedure: (§1) For the determination of COX-1 and COX-2 inhibitory activity, the tested compounds were dissolved in dimethyl sulfoxide (DMSO, 5 mM stock solution) and then diluted with the same solvent to obtain the test solutions. The test solutions were further diluted 5× with COX Assay Buffer (2 µL of test solution: 8 µL COX Assay Buffer). […] Solvent Control (SC) was prepared by adding 2 µL DMSO and 8 µL COX Assay Buffer, while Sample (S) and Enzyme Control (EC) were prepared by adding 10 µL of diluted test solution and COX Assay Buffer, respectively, into assigned wells.

[4] = biological target: T3, COX-1 (Ovis aries, UniProt P05979); assay: Fluorometric COX-1 inhibitor screening kit
T3 sequence (P05979 25-600): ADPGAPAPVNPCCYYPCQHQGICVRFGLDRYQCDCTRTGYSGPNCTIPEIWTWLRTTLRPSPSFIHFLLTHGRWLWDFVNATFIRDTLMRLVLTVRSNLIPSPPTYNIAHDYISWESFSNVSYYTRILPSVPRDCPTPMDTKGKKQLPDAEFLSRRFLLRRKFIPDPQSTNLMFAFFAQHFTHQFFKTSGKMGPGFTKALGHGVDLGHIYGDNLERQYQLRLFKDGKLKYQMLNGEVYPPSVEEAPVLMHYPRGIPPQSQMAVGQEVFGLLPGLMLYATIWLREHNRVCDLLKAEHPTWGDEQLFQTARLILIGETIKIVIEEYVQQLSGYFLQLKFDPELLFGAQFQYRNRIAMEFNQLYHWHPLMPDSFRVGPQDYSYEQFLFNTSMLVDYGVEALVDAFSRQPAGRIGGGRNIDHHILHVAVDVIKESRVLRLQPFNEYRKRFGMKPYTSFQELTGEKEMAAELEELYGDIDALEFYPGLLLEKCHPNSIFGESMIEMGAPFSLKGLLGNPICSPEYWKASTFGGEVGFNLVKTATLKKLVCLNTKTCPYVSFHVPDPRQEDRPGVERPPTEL
Procedure: as §1

Structure (SMILES) | melting point [°C] | IC50 [2] [µM] | 5-LOX Percent of İnhibition [2] [%] | COX-2 Percent of İnhibition [3] [%] | IC50 [4] [µM] | IC50 [3] [µM] | IC50 [1] [nM] | Selectivity, cancer vs healthy cell line [1]
O=C(N/N=C/c1ccccc1O)c1cc(-c2ccccc2)c(-c2ccccc2)s1 [7a, N’-[(E)-(2-hydroxyphenyl)methylidene]-4,5-diphenylthiophene-2-carbohydrazide] | 238 | 3.78 ± 0.39 | 64.38 ± 0.46 | 13.57 ± 0.38 | – | – | 880 ± 60 | cytotoxic effects on healthy cell line too
COc1ccccc1/C=N/NC(=O)c1cc(-c2ccccc2)c(-c2ccccc2)s1 [7d, N’-[(E)-(2-methoxyphenyl)methylidene]-4,5-diphenylthiophene-2-carbohydrazide] | 263 | – | 15.61 ± 0.66 | 16.74 ± 3.36 | – | – | > 100000 | showed selectivity

Continued, in another order:

melting point [°C] | IC50 [2] [µM] | 5-LOX Percent of İnhibition [2] [%] | COX-2 Percent of İnhibition [3] [%] | IC50 [4] [µM] | IC50 [3] [µM] | Structure (SMILES) | IC50 [1] [nM] | Selectivity, cancer vs healthy cell line [1]
234 | 3.3 ± 0.07 | 60.69 ± 0.54 | 49.41±1.12 | > 100 | 13.9 ± 0.76 | COc1cc(/C=N/NC(=O)c2cc(-c3ccccc3)c(-c3ccccc3)s2)ccc1O [7e, N’-[(E)-(3-methoxy-4-hydroxyphenyl)methylidene]-4,5-diphenylthiophene-2-carbohydrazide] | – | –
256 | 2.6 ± 0.11 | 55.05 ± 1.37 | 51.97 ± 2.51 | > 100 | 10.1 ± 0.25 | O=C(N/N=C/c1ccc(O)cc1)c1cc(-c2ccccc2)c(-c2ccccc2)s1 [7c, N’-[(E)-(4-hydroxyphenyl)methylidene]-4,5-diphenylthiophene-2-carbohydrazide] | – | –
249 | 2.94 ± 0.2 | 60.56 ± 2.49 | 38.41 ± 0.85 | > 100 | 39 ± 3.41 | COc1ccc(/C=N/NC(=O)c2cc(-c3ccccc3)c(-c3ccccc3)s2)cc1O [7f, N’-[(E)-(3-hydroxy-4-methoxyphenyl)methylidene]-4,5-diphenylthiophene-2-carbohydrazide] | 670 ± 130 | cytotoxic effects on healthy cell line too
